The results in this text go back to PubChem BioAssay (NCI).

Values joined by “and” are separate entries in the source; they are usually repeats but may differ in a detail not shown here. Equal values may be shown once.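 Growth conditions: 96-well plates. Treatment: test compound, 48 hours, 5 concentrations. Analysis: linear interpolation between bracketing concentrations; unreached endpoints set to highest concentration. GI50: concentration for 50% inhibition of growth. Definition used: TGI = concentration required for complete inhibition of growth.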 Where only a bound is given, the exact number is not on record here.

What is called GI50 is the concentration at which growth is held to half of that of the control. The TGI is the concentration at which net growth stops. Low readings indicate more potent growth arrest, high ones less potent growth arrest.

Some test systems named below: NCI-H23 lung; BT-549 breast; HCC-2998 colon; DU-145 prostate; SNB-75 CNS; HOP-62 NSCLC; SR leukemia; RPMI-8226 leukemia.
Common to all, as to experiment: DTP human tumour cell line panel, 48 h

With `O=C(Nc1cccc(Cl)c1)c1cccc(NC2=C(Cl)C(=O)N(Cc3ccccc3)C2=O)c1`, the GI50 in the assay with NCI-H23 lung was above 100 µM; with BT-549 breast, 36.9 µM; with HCC-2998 colon it was 19.8 µM; in the assay with DU-145 prostate it was 46 µM; in the assay on SNB-75 CNS, above 100 µM; in the assay with HOP-62 NSCLC, 0.84 µM. In addition, the values for the GI50 in the assay with SR leukemia and in the assay with RPMI-8226 leukemia were 2.32 µM and 7.58 µM, respectively. For the same compound, the TGI with NCI-H23 lung was above 100 µM; in the assay on BT-549 breast, above 100 µM; in the assay with HCC-2998 colon it was 62.4 µM; in the assay with DU-145 prostate, above 100 µM; with SNB-75 CNS, above 100 µM; in the assay with HOP-62 NSCLC, 42.8 µM. Besides, the TGI with SR leukemia turned out to be 10.5 µM; with RPMI-8226 leukemia it was 53.3 µM.

With `C/C(=C\c1cc(C(F)(F)F)n(-c2ccc(N)cc2)n1)[C@@H]1C[C@@H]2O[C@]2(C)CCC[C@H](C)[C@H](O)[C@@H](C)C(=O)C(C)(C)[C@@H](O)CC(=O)O1`, the GI50 is 0.0829 µM in the assay on NCI-H23 lung; 0.065 µM with BT-549 breast; 0.0244 µM in the assay on HCC-2998 colon; 0.0372 µM in the assay on DU-145 prostate; 0.0078 µM in the assay on SNB-75 CNS; 0.0762 µM in the assay on HOP-62 NSCLC. The GI50 was 0.0225 µM with SR leukemia and below 0.0106 µM in the assay on RPMI-8226 leukemia. The TGI is above 11.1 µM in the assay on NCI-H23 lung; 3.44 µM in the assay with BT-549 breast; 1.39 µM in the assay on HCC-2998 colon; 0.265 µM with DU-145 prostate; 0.189 µM in the assay with SNB-75 CNS; above 11.1 µM in the assay with HOP-62 NSCLC. Further, the figures for the TGI with SR leukemia and in the assay on RPMI-8226 leukemia were 2.18 µM and above 11.1 µM, respectively.

For `COc1cc2nccc(Oc3ccc(NC(=O)Nc4cc(C)on4)c(Cl)c3)c2cc1OC`, the GI50 in the assay with NCI-H23 lung was 2.97 µM and 3.07 µM; with BT-549 breast, 4.16 µM and 4.99 µM; in the assay on HCC-2998 colon, 9 µM and > 10 µM; in the assay with DU-145 prostate, 4.31 µM and 6.6 µM; in the assay with SNB-75 CNS, 1.99 µM and 2.06 µM; in the assay on HOP-62 NSCLC, 5.58 µM and > 10 µM. For the same compound, the GI50 is 2.62 µM and 3.86 µM with SR leukemia; 9.83 µM and 4.33 µM in the assay on RPMI-8226 leukemia. The TGI with NCI-H23 lung is above 100 µM; with BT-549 breast it was 13.4 µM and > 10 µM; with HCC-2998 colon, above 100 µM; with DU-145 prostate, above 77.8 µM; with SNB-75 CNS, 6.24 µM and > 10 µM; in the assay with HOP-62 NSCLC it was above 100 µM. The TGI in the assay on SR leukemia was 34.4 µM and > 10 µM; with RPMI-8226 leukemia, above 55.7 µM.

As to `CC(C(N)C(=O)NC(C(=O)O)C1OC(n2ccc(=O)[nH]c2=O)C(O)C1O)C(O)c1ccc(O)cn1` (stereo unspecified), the TGI in the assay with NCI-H23 lung, in the assay with BT-549 breast, in the assay with HCC-2998 colon, with DU-145 prostate, with SNB-75 CNS and in the assay on HOP-62 NSCLC was above 100 µM in each case. Further, the TGI with SR leukemia and with RPMI-8226 leukemia was above 100 µM in each case.

For `NS(=O)(=O)c1ccc(N(/C=C/C(=O)C(F)(F)F)Cc2ccc(Cl)cc2)cc1`, the GI50 is 21.8 µM in the assay on NCI-H23 lung; 23.6 µM with BT-549 breast; 18.1 µM in the assay with HCC-2998 colon; 22.1 µM in the assay on DU-145 prostate; 32.2 µM with SNB-75 CNS; 20 µM in the assay on HOP-62 NSCLC. Besides, the figures for the GI50 in the assay on SR leukemia and with RPMI-8226 leukemia were 20.5 µM and 26.2 µM, respectively. In addition, the TGI turned out to be 64.3 µM with NCI-H23 lung; 62.6 µM in the assay with BT-549 breast; 35.5 µM with HCC-2998 colon; 66 µM with DU-145 prostate; 65.1 µM in the assay on SNB-75 CNS; 53.8 µM in the assay with HOP-62 NSCLC. For the same compound, the TGI worked out at 43.5 µM in the assay with SR leukemia and 89.1 µM in the assay with RPMI-8226 leukemia.

Consider `Cc1cc(-c2ccccn2)cc(C)c1/C=C/c1cncc(-c2nn[nH]n2)c1`, for which the GI50 in the assay on NCI-H23 lung, in the assay on BT-549 breast, with HCC-2998 colon, in the assay with DU-145 prostate, with SNB-75 CNS and in the assay on HOP-62 NSCLC was above 25 µM each time. The GI50 in the assay with SR leukemia and with RPMI-8226 leukemia was above 25 µM each time. Moreover, the TGI in the assay with NCI-H23 lung, in the assay with BT-549 breast, in the assay with HCC-2998 colon, in the assay with DU-145 prostate, with SNB-75 CNS and in the assay with HOP-62 NSCLC was above 25 µM throughout. Further, the TGI in the assay with SR leukemia and in the assay with RPMI-8226 leukemia was above 25 µM each time.

`NS(=O)(=O)NCCNc1nonc1C(=Nc1ccc(F)c(Br)c1)NO`: the GI50 in the assay with NCI-H23 lung was 28.9 µM; in the assay with BT-549 breast, 40.9 µM; in the assay on HCC-2998 colon it was 27.4 µM; in the assay on DU-145 prostate, 51.2 µM; with SNB-75 CNS it was 15.2 µM; in the assay with HOP-62 NSCLC it was above 100 µM. The values for the GI50 in the assay with SR leukemia and with RPMI-8226 leukemia were 30.2 µM and 37.9 µM, respectively. Besides, the TGI with NCI-H23 lung is above 100 µM; with BT-549 breast it was above 100 µM; with HCC-2998 colon it was 77.5 µM; in the assay on DU-145 prostate it was above 100 µM; in the assay with SNB-75 CNS, above 100 µM; with HOP-62 NSCLC it was above 100 µM. Further, the TGI with SR leukemia and in the assay with RPMI-8226 leukemia was above 100 µM each time.

As for `CC1=C(C(=O)Nc2cc(Cl)c3[nH]ncc3c2)C(c2ccc(C(F)(F)F)cc2)CC(=O)N1` (stereo unspecified), the GI50 with NCI-H23 lung is above 25 µM; in the assay on BT-549 breast it was 5.07 µM; in the assay on HCC-2998 colon, above 25 µM; in the assay on DU-145 prostate it was above 25 µM; in the assay on SNB-75 CNS it was 3.13 µM; with HOP-62 NSCLC it was 5.07 µM. Further, the GI50 was above 7.84 µM with SR leukemia and 24.9 µM with RPMI-8226 leukemia. The TGI in the assay on NCI-H23 lung, with BT-549 breast, in the assay with HCC-2998 colon, with DU-145 prostate, with SNB-75 CNS and in the assay with HOP-62 NSCLC was above 25 µM throughout. Moreover, the TGI in the assay on SR leukemia and in the assay with RPMI-8226 leukemia was above 25 µM each time.

Regarding `CO/N=C(\COc1ccc2oc(-c3ccccc3)cc(=O)c2c1)c1ccc(OC)cc1`, the GI50 is 32.4 µM with NCI-H23 lung; 41.2 µM with BT-549 breast; 21.4 µM in the assay with HCC-2998 colon; 31 µM in the assay with DU-145 prostate; 25.4 µM in the assay with SNB-75 CNS; 17 µM in the assay with HOP-62 NSCLC. Also, the results for the GI50 in the assay with SR leukemia and in the assay with RPMI-8226 leukemia were 11.3 µM and 27.9 µM, respectively. Also, the TGI was above 100 µM in the assay with NCI-H23 lung; above 100 µM with BT-549 breast; 48.6 µM in the assay on HCC-2998 colon; above 100 µM in the assay with DU-145 prostate; 54.5 µM in the assay on SNB-75 CNS; 33 µM with HOP-62 NSCLC. In addition, the results for the concentration for total growth inhibition (TGI) in the assay on SR leukemia and with RPMI-8226 leukemia were 36.9 µM and 81.9 µM, respectively.
